From patent publication US4554353A, “2,5-Pyrrolidinedione derivatives useful as antiarrhythmic agents” (G. D. Searle & Co., priority 1984, dated 1985)

Key:
Ventricular arrhythmia = assay: Harris Dog Efficacy (ventricular arrhythmia induced by 2-stage coronary artery ligation in unanesthetized dogs); format: in vivo; settings: for minimal effective dose: Canis lupus familiaris, 10 min, intravenous, unanesthetized dogs, at least 25% reduction in ectopic beats for at least 10 minutes in half or more of dogs; for activity in the dog ventricular arrhythmia test: active = at least 25% reduction in ectopic beats for at least 10 minutes in half or more of dogs
Protocol: Ventricular arrhythmia is induced by a 2-stage ligation of the anterior descending branch of the left coronary artery in each of two or more unanesthetized dogs. The test compound is administered intravenously at 5 mpk doses to a maximum dose of 20 mpk.

Muscarinic Receptor = Muscarinic Receptor Binding Assay (3H-QNB displacement, rat brain homogenate); settings: inhibition of specific 3H-QNB binding by 50%, 0.15 nM 3H-QNB, pH 7.4, 25° C., 1 hour

IC50 (Muscarinic Receptor) [nM]	SMILES	minimal effective dose (Ventricular arrhythmia) [mg/kg]	activity in the dog ventricular arrhythmia test (Ventricular arrhythmia)
140	CC(C)N(CCC1(c2ccccc2)CC(=O)NC1=O)C(C)C (stereo not shown) [Example 2, 3-[2-[bis(1-methylethyl)amino]ethyl]-3-phenyl-2,5-pyrrolidinedione]	10	–
300	CC(C)N(CCC1(c2ccccc2Cl)CC(=O)NC1=O)C(C)C (stereo not shown) [Example 4, 3-[2-[bis(1-methylethyl)-amino]ethyl]-3-(2-chlorophenyl)-2,5-pyrrolidinedione]	2.8	–
470	CC1CCCC(C)N1CCC1(c2ccccc2Cl)CC(=O)NC1=O (stereo not shown) [Example 6, 3-(2-chlorophenyl)-3-[2-(2,6-dimethyl-1-piperidinyl)ethyl]-2,5-pyrrolidinedione]	1.3	–
3600	CCCN(CCC)CCCC1(c2ccccc2Cl)CC(=O)NC1=O (stereo not shown) [Example 14]	1	–
20	CCN(CC)CCC1(c2ccccc2)CC(=O)NC1=O (stereo not shown) [Formula II (Prior Art), reference compound]	2	–
–	CC(C)N(CCC(C(N)=O)(c1ccccc1)c1ccccn1)C(C)C (stereo not shown) [Norpace, reference compound]	–	active
–	CCN(CC)CCNC(=O)c1ccc(N)cc1 [procainamide, reference compound]	–	active
–	C=C[C@H]1C[N@@]2CC[C@H]1C[C@@H]2[C@@H](O)c1ccnc2ccc(OC)cc12 [quinidine, reference compound]	–	active
